Experimental data reported in patent US11447825B2, “In-vitro methods for the detection of autoimmune diseases or conditions” (Universitätsmedizin der Johannes Gutenberg-Universität Mainz, priority 2015, dated 2022).

Columns and labels:
Format in all cases: cell-based, human
[1] = tested on: T-cells cocultured with Treg; assay: Suppressor assay: T-cell proliferation with or without Treg (3H-Tdr incorporation); conditions: for Treg-mediated suppression in cocultures in presence of exogenous IL-6: HC T-cells with Treg plus IL-6 plus test substance, anti-IL-6R mAb 30 ng/ml, Akt VIII inhibitor 0.1 μM, PPARA agonist 0.01 μM
Protocol: Treg-depleted PBMC (10^5 cells) were stimulated with 0.5 μg/ml anti-CD3 mAb (OKT-3) and cultured in presence or absence of different Treg ratios (Treg:T-cells 1:1 to 1:64) (Jonuleit et al., 2001; Kubach et al., 2007). T-cell proliferation was determined on day three of cultures by addition of 37 kBq/well ^3H-Tdr for additional 16 h. Some experiments were performed by supplementing cultures with neutralizing mAb against anti-IL-6R (30 ng/ml; Tocilizumab; Roacterma; Roche) or supplemented with IL-6 (100 ng/ml or 1000 IU/ml; CellGenix). PKB/c-Akt VIII inhibitor (0.1 μM; Calbiochem, Isozyme-selective, Akt1/2) was added into individual assays. Some experiments were performed by supplementing cultures with PPARA antagonists (GW6471, Tocris, 0.05 μM) or PPARA agonists (GW7646, Tocris, 0.01 μM) together with IL-6 (100 ng/ml or 1000 IU/ml; CellGenix). For flow cytometric analysis of proliferating T-cells Treg-depleted PBMC were washed in warm PBS and stained with 1 μM CFSE and afterwards cocultured with or without Treg (ratio 1:1) and stimulated with 0.5 μg/ml anti-CD3 mAb. Proliferation was assessed on day 3 after excluding dead cells. Analysis was performed on LSRII (BD Bioscience) and evaluated using DIVA software (BD Bioscience).

T-cells = assay: Toxicity of PPARα modifiers in cell culture; conditions: incubation with PPARα antagonist (Supplemental FIG. 4)
Protocol: Human cells were cultured in X-VIVO-15 (Lonza, Belgium). Flow cytometric analysis was performed using the following antibodies: anti-human CD3 (SK7), anti-human CD3 (UCHT1), anti-human CD4 (RPA-T4), anti-human CD8 (SK1), anti-human CD14 (M5E2), anti-human CD19 (HIB19), anti-human CD25 (M-A251), all from BD Pharmingen, anti-human CD8 (BW 135/80, Miltenyi Biotec), Fluorokine® biotinylated human Interleukin-6 (R&D systems). Cell viability during flow cytometric analysis was determined using 7-AAD and eFluor506 (eBioscience). For blockade experiments, cultures were supplemented with neutralizing antibody against anti-IL-6R (Tocilizumab), PKB/c-Akt VIII inhibitor (Calbiochem), PPARA antagonists (GW6471, Tocris, 0.05 μM) or PPARA agonists (GW7646, Tocris, 0.01 μM) together with IL-6 (100 ng/ml or 1000 IU/ml; CellGenix).

PKB/c-Akt = PKB/c-Akt phosphorylation in CD3+ T-cells by flow cytometry; conditions: HC T-cells; for phosphorylation of PKB/c-Akt in presence of IL-6: 24 h with IL-6 plus IL-6R mAb or VIII inhibitor (0.01, 0.1 and 1 μM)
Protocol: For surface staining of PBMC or T-cells indicated antibodies were incubated for 30 min at 4° C. and washed twice with PBS. Stained cells were measured on LSRII with FACS Diva Software (BD Bioscience). To detect phosphorylated PKB/c-Akt (anti-Akt, pS473, BD Phosflow), cells were fixed at 37° C. (BD Cytofix™ Buffer); permeabilized (BD™ Phosflow Perm Buffer) washed twice with BD Pharmingen™ stain buffer and stained for the indicated antibody according to manufacturer's instructions.
A) Upper panel: CD3^+ T-cells and Treg were coculture in presence (grey) or absence (black) of IL-6 and stimulated with anti-CD3 mAb. […] One of four independent experiments is shown. Lower panel: PBMC from HC were cultured for 24 h with (grey) or without (black) IL-6, washed extensively and CD4^+ or CD8^+ T-cells were isolated. Cells were left unstimulated or were activated with plate-bound anti-CD3 and anti-CD28 mAb for four hours. Shown are expression levels of (PPARGC1A) PGC-1α mRNA in activated CD4^+ and CD8^+ T-cells (TC) normalized to resting T-cells. β-Actin used as housekeeping gene. Bars represent mean of four experiments, p-values relative to TC without IL-6. B) PKB/c-Akt phosphorylation was analyzed by flow cytometry within CD3^+ T-cells after 24 h of culture with (black) or without IL-6 (grey). C) Flow cytometric determination of PKB/c-Akt phosphorylation. […] Shown is the mean fluorescence intensity (MFI) of pPKB/c-Akt in T-cells, one representative result of five independent experiments. […] PKB/c-Akt phosphorylation was analyzed by flow cytometry within CD3^+ T-cells. […]
A) PBMC from HC were cultured for 24 h with media (black), PPARα antagonist (blue) or PPARα agonist (green), washed extensively and expression level of PGC-1α mRNA in activated T-cells was detected by qRT-PCR. β-Actin used as housekeeping gene. […] B) PKB/c-Akt phosphorylation was analysed by flow cytometry within CD3^+ T-cells after 24 h of culture with media (black), PPARα agonist (green) or PPARα antagonist (blue). […]

PGC-1α = PGC-1α (PPARGC1A) mRNA expression in activated T-cells by qRT-PCR; conditions: HC PBMC 24 h with IL-6, then anti-CD3/anti-CD28 for four hours; normalized to resting T-cells
Protocol: RNA was extracted from 2×10^6 cells using Rneasy Kit (Qiagen) according to manufacturer's instructions. cDNA was generated by reverse transcription with Sensiscript RT Kit (Qiagen) and amplified by quantitative RT-PCR (qRT-PCR, 7300 Real Time PCR System (Applied Biosystem) and the QuantiFAST PCR Kit (Qiagen). Relative IL-6 mRNA (QuantiTect Primer, Qiagen) expression levels were normalized to EF1-α or β-Actin. Relative PPARGC1α, IRF8, FGF19, HNF4A, Hdac, RORA mRNA was analyzed with QuantiTect Primer Assay (Qiagen) according to manufacturer's instructions and expression levels were normalized to β-ACT.
A) Upper panel: CD3^+ T-cells and Treg were coculture in presence (grey) or absence (black) of IL-6 and stimulated with anti-CD3 mAb. […] One of four independent experiments is shown. […] B) PKB/c-Akt phosphorylation was analyzed by flow cytometry within CD3^+ T-cells after 24 h of culture with (black) or without IL-6 (grey). […] Shown is the mean fluorescence intensity (MFI) of pPKB/c-Akt in T-cells, one representative result of five independent experiments. […] PKB/c-Akt phosphorylation was analyzed by flow cytometry within CD3^+ T-cells. […]
A) PBMC from HC were cultured for 24 h with media (black), PPARα antagonist (blue) or PPARα agonist (green), washed extensively and expression level of PGC-1α mRNA in activated T-cells was detected by qRT-PCR. β-Actin used as housekeeping gene. […]

Compound: CCC(=O)NC[C@H](Cc1ccc(OCCc2nc(-c3ccccc3)oc2C)cc1)N/C(C)=C\C(=O)c1ccc(C(F)(F)F)cc1 [PPARα antagonist]
- Treg resistance in cocultures without IL-6 ([1]; T-cells and Treg, anti-CD3 mAb, PPARA antagonist 0.05 μM alone): Treg resistance could be induced
- T-cell proliferation in absence of Treg ([1]; no Treg, agonist 0.01 μM, antagonist 0.05 μM): did not influence the T-cell proliferation significantly
- toxicity (T-cells): without inducing toxicity

Compound: O=c1[nH]c2ccccc2n1C1CCN(Cc2ccc(-c3nc4cc5[nH]cnc5cc4nc3-c3ccccc3)cc2)CC1 [c-Akt inhibitor VIII]
- Treg-mediated suppression in cocultures in presence of exogenous IL-6 [1]: restored IL-6-induced Treg resistance
- phosphorylation of PKB/c-Akt in presence of IL-6 (PKB/c-Akt): inhibited phosphorylation of PKB/c-Akt

Compound: IL-6: exogenous cytokine IL-6 (100 ng/ml or 1000 IU/ml; CellGenix)
- control of T-cells by Treg in suppressor cocultures ([1]; Treg-sensitive T-cells from HC with Treg, anti-CD3 mAb, IL-6 supplemented (100 ng/ml or 1000 IU/ml), day three): prevented efficient control of T-cells by Treg
- phosphorylation of PKB/c-Akt in T-cells (PKB/c-Akt; 24 h culture with IL-6): enhanced phosphorylation of PKB/c-Akt
- PGC-1α expression in activated CD4+ T-cells (PGC-1α): down regulated PGC-1α expression
- PGC-1α expression in activated CD8+ T-cells (PGC-1α): prevented the upregulation of PGC-1α

Compound: anti-IL-6R mAb: neutralizing mAb against anti-IL-6R (Tocilizumab; Roacterma; Roche)
- Treg-mediated suppression in cocultures in presence of exogenous IL-6 [1]: restored IL-6-induced Treg resistance
- phosphorylation of PKB/c-Akt in presence of IL-6 (PKB/c-Akt): inhibited phosphorylation of PKB/c-Akt
